Test results as given in ChEMBL document CHEMBL1201862, “PubChem BioAssay data set” (2004).
Activity calls are given as the source filed them.

Legend:
[1] = viability of PTEN-deleted HCT116 cells – cell-based, HCT116 PTEN knockout, dose response (AID 1047); assay type: functional;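 further: HCT116 colon tumor cells with PTEN knocked out; cells exposed to compound for 60 hours before readout; potency for loss of cell viability measured by luminescence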
[2] = viability of HCT116 lacking mutant beta-catenin – cell-based, human colon tumor, dose response (AID 1045); assay type: functional;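 further: HCT116 colon tumor cells with beta catenin knocked out; cells exposed to compound for 60 hours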
BJ [3] = assay: BJ-TERT fibroblast viability loss – cell-based, RAS-independent, luminescence, dose response (AID 1933); assay type: functional; conditions: Homo sapiens
BJ [4] = assay: cells; assay type: functional, cell-based; conditions: Homo sapiens
BJ [5] = assay: BJ-TERT-LT-ST fibroblast viability loss – cell-based, RAS-independent, luminescence, dose response (AID 1935); assay type: functional; conditions: Homo sapiens;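 further: BJ fibroblasts immortalized with TERT plus LT and ST oncogenes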
[6] = DRD fibroblast viability loss – cell-based, non-viral oncogenic, luminescence, dose response (AID 1934); assay type: functional; conditions: Homo sapiens
[7] = molecular target: T1, Ubiquitin-conjugating enzyme E2 N (Homo sapiens, UniProt P61088); assay type: functional;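 further: Dose-response confirmation in a TR-FRET assay detecting UBC13-driven polyubiquitin chain formation, inhibition measured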
T1 sequence (P61088 whole entry): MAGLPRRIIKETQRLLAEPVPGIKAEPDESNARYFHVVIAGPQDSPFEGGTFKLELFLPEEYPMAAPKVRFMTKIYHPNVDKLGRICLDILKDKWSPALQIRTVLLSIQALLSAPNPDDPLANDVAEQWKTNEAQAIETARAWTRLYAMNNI

[8] = reduction of Shn3 3'UTR-driven luciferase in osteoblasts – cell-based, Clone20 osteoblasts, firefly luciferase, cherry-picked, dose response (AID 624132); assay type: functional;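 further: firefly luciferase luminescence from reporter carrying the Shn3 3'UTR in osteoblasts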
[9] = loss of viability in HepG2 cells – cell-based, CellTiter-Glo, cherry-picked, cytotoxicity control for Shn3 inhibitor project, dose response (AID 624134); assay type: functional
[10] = non-specific 3'UTR reporter inhibition in Clone20-Shn3RL – cell-based, Renilla luciferase, cherry-picked, counter-screen for Shn3 inhibitor project, dose response (AID 624133); assay type: functional
[11] = molecular target: Luciferin 4-monooxygenase (Photinus pyralis, UniProt P08659); assay: inhibition of purified Photinus pyralis luciferase – biochemical, luminescence, dose response (AID 1891)
[12] = Luminescence Cell-Based Dose Confirmation HTS to Identify Inhibitors of Platelet Dense Granule Release. [Related pubchem assays: 1663 (Primary HTS), 1678 (Summary of Project)]; assay type: functional
[13] = viability of uninfected HEp-2 cells – cell-based, HTS, cytotoxicity control for RSV inhibitor project, dose response (AID 2410); assay type: functional; conditions: human respiratory syncytial virus
[14] = Luminescence Cell-Based Dose Retest to Confirm Inhibitors of Cancer Stem Cells. [Related pubchem assays (depositor defined):AID2717, AID2721]; assay type: functional; conditions: Homo sapiens
Genome polyprotein = Genome polyprotein (dengue virus type 2, UniProt P29990); assay: flavivirus cap methylation enzyme inhibition – biochemical, confirmation dose response, primary screen (AID 588689); assay type: functional
Aminopeptidase N = molecular target: T2, Aminopeptidase N (Plasmodium falciparum FcB1/Columbia, UniProt O96935); assay: malaria alanyl aminopeptidase activity blockers – biochemical, fluorogenic H-Leu-NHMec substrate, 1536-well (AID 1445); set-up: species or system Plasmodium falciparum 3D7, 3D7
T2 sequence (O96935 whole entry): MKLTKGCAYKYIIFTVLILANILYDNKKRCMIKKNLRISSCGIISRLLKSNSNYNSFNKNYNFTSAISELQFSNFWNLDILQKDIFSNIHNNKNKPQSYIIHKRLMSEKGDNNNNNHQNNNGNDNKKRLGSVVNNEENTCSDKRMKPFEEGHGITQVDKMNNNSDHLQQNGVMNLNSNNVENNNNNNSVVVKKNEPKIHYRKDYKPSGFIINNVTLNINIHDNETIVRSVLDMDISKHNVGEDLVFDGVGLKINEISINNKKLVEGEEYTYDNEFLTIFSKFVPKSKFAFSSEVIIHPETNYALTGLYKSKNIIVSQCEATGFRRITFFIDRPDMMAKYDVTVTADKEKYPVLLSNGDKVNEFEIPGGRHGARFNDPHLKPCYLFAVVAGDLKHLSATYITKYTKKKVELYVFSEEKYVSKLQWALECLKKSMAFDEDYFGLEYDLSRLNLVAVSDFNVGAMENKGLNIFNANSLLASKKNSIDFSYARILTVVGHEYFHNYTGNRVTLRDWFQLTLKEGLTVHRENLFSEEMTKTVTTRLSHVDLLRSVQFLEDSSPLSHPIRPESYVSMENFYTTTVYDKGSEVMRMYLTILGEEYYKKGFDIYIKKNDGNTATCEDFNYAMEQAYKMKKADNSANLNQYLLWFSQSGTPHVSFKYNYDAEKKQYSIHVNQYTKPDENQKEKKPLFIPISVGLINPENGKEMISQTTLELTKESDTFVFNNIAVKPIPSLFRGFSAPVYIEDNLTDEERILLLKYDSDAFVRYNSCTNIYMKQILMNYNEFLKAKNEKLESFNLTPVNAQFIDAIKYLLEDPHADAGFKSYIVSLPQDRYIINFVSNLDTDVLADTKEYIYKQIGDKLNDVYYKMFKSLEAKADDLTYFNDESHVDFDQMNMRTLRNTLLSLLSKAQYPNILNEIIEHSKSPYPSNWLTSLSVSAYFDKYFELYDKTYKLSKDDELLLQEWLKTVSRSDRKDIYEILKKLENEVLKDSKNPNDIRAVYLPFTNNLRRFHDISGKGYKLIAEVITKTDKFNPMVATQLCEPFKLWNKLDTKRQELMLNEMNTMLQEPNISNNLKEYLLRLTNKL

[15] = molecular target: FAD-linked sulfhydryl oxidase ALR (Homo sapiens, UniProt P55789); assay: ALR-catalysed DTT oxidation blockers – biochemical, H2O2 detection, luminescence, cherry-pick, dose response (AID 493248)
[16] = luciferase reporter signal suppression in cells – H4 neuroglioma cells, luminescence, dose response (AID 1990); assay type: functional, cell-based
[17] = Luminescence Cell-Based Dose Response HTS to Identify Inhibitors of 5'UTR Stem-Loop Driven Prion Protein mRNA Translation in H4 Neuroglioblastoma Cells. [Related pubchem assays: 1827 (Project Summary), 1813 (Primary HTS)]; assay type: functional
[18] = Trypanosoma cruzi growth suppression in host cells – NIH3T3 host cells, beta-gal luminescence, confirmation (AID 2044); assay type: functional, cell-based;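 further: intracellular parasites grown in NIH/3T3 mouse fibroblasts as host cells; luminescent beta-galactosidase reporter signal from transgenic T. cruzi replicating inside host cells; inhibitors lower the luminescence signal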
[19] = NIH3T3 cell viability loss – ATP luminescence, mouse fibroblasts, counter-screen, dose response (AID 2010); assay type: functional, cell-based;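 further: cells exposed to compound for about 90 hours before reading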
Cytochrome P450 1A2 = molecular target: T3, Cytochrome P450 1A2 (Homo sapiens, UniProt P05177);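 further: PubChem cytochrome P450 panel assay, CYP1A2 panel member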
T3 sequence (P05177 whole entry): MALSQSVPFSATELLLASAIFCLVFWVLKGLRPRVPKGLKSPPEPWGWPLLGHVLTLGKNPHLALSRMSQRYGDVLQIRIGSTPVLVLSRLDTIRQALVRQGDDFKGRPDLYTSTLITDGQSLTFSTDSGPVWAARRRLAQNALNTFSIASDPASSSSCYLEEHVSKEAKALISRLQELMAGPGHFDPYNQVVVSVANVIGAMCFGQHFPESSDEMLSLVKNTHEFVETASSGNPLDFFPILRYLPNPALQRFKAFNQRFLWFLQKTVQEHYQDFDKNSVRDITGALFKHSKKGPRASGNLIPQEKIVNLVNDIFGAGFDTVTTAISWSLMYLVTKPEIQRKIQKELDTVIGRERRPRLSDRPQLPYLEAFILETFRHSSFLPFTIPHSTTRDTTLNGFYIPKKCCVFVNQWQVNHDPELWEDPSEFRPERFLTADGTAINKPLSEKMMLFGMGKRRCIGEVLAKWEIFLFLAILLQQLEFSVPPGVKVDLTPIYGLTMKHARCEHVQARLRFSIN

Cytochrome P450 3A4 = Cytochrome P450 3A4 (Homo sapiens, UniProt P08684);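 further: CYP3A4 tested as one member of a cytochrome P450 panel screen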
[20] = P. falciparum Dd2 growth inhibitors, dose response, SYBR Green, cherry-picked samples (AID 1159567); assay type: functional, cell-based

Chain of Luciferin 4-monooxygenase (P08659 whole entry): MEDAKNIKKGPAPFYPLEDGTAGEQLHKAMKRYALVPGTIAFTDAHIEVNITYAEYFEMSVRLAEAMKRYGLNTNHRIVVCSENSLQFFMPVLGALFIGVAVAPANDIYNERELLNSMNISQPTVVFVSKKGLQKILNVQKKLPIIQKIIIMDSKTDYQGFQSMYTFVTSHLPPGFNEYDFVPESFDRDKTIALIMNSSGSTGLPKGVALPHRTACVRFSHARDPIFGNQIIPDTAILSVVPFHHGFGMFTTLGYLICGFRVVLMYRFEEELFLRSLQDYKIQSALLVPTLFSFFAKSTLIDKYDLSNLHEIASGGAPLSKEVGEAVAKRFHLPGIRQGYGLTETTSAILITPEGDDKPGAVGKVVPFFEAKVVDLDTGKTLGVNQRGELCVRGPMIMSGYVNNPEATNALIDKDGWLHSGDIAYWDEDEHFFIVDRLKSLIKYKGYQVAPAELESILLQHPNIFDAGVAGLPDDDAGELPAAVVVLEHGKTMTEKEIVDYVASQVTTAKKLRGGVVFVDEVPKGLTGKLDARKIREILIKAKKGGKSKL
Chain of Genome polyprotein (P29990 2492-3391 limits assumed): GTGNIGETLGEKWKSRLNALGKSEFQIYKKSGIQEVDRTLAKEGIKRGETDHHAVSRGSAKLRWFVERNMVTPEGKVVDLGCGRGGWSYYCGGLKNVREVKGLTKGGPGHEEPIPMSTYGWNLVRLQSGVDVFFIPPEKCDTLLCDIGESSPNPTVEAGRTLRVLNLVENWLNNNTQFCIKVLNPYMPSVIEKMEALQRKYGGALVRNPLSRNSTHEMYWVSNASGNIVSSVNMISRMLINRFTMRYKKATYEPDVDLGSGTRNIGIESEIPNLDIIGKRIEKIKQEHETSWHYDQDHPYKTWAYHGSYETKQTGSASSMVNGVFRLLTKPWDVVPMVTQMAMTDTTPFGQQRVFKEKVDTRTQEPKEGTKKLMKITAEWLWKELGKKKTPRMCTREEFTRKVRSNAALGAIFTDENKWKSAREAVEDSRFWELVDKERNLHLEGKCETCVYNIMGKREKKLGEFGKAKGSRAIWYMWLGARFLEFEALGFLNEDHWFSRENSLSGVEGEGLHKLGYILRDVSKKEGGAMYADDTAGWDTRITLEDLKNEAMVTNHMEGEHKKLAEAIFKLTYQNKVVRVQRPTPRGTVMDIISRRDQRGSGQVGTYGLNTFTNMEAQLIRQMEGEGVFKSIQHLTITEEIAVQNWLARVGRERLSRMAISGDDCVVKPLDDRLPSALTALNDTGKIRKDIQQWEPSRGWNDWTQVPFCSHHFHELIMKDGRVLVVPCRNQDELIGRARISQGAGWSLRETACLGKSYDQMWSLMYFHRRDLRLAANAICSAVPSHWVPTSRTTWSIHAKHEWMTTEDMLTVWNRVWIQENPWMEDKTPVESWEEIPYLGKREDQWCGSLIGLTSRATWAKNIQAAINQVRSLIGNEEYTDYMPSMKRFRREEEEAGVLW
Chain of FAD-linked sulfhydryl oxidase ALR (P55789 whole entry): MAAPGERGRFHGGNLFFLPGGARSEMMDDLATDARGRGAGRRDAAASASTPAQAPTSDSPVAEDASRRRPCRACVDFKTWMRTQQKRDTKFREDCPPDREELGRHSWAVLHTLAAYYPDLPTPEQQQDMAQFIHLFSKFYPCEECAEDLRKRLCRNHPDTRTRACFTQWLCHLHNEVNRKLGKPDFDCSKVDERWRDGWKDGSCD
Chain of Cytochrome P450 3A4 (P08684 whole entry): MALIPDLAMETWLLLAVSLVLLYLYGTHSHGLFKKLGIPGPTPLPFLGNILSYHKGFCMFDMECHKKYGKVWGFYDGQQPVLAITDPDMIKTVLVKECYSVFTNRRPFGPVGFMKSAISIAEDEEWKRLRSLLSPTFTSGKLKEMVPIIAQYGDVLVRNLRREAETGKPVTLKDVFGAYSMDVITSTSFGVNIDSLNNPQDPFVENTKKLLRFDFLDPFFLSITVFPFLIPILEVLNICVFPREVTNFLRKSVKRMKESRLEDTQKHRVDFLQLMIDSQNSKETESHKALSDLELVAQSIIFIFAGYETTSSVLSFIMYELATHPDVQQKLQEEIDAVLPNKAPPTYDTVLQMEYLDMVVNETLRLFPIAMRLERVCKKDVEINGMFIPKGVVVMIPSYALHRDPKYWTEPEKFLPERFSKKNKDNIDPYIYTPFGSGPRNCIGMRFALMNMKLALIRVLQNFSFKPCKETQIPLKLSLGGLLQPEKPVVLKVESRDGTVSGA

SMILES: CC(C)(C)S(=O)(=O)c1cnc2c(-c3ccc(Cl)cc3)cnn2c1N
- EC50 [1]: 10.3 µM (active)
- EC50 [2]: 11.8 µM (active)

SMILES: COc1ccc(-c2noc(CCC(=O)NCCCN3CCC(Cc4ccccc4)CC3)n2)cc1
- EC50 (BJ [3]): 23.2 µM (active)
- EC50 (BJ [4]): > 150 µM (not active)
- EC50 (BJ [5]): > 150 µM (not active)
- EC50 [6]: 18.5 µM (active)
- IC50 [7]: > 20 µM (inactive)
- AC50 [8]: 4.03 µM (active)
- AC50 [9]: 30.4 µM (active)
- AC50 [10]: 20.7 µM (active)

SMILES: CCOC(=O)N1CCN(C(=O)CNC2CCCCCCC2)CC1
- EC50 [11]: > 112 µM (not active)
- EC50 [12]: 16.7 µM (active)

SMILES: CCc1ccc([C@@H]2CC=C(C(=O)O)[C@H](c3ccc(Cl)cc3)N2S(=O)(=O)c2ccc(C)cc2)cc1
- CC50 [13]: 11.6 µM (active)
- AC50 [14]: 7.7 µM (active)
- IC50 (Genome polyprotein): 40.3 µM (active)

SMILES: COC(=O)CC1=NN(c2ccccc2)C(=O)/C1=C\c1ccc(OC)cc1
- IC50 (Genome polyprotein): 33.3 µM (active)

SMILES: CSc1ncc(Cl)c(C(=O)C(C#N)c2nc3c(C)cc(C)cc3c(=O)[nH]2)n1 (stereo not drawn)
- IC50 (Aminopeptidase N): 84.5 µM (active)

SMILES: CN(C)CCCNc1oc(/C=C/c2ccccc2)nc1C#N
- IC50 (Aminopeptidase N): 45.3 µM (active)

SMILES: COc1cccc(/C=C(/C#N)c2ccc(F)cc2)c1OCc1cccc(C(=O)O)c1
- IC50 (Aminopeptidase N): 43.6 µM (active)

SMILES: CCCn1c(-c2ccc[nH]c2=O)nc2cc(C)c(C)cc21
- IC50 (Aminopeptidase N): 23.8 µM (active)

SMILES: CC1CCCCC1NC(=O)c1ccc(S(=O)(=O)NNC(=O)c2ccncc2)cc1 (stereo not drawn)
- AC50 [15]: 2.99 µM (active)

SMILES: O=C(O)c1ccccc1NS(=O)(=O)c1cccc(NS(=O)(=O)c2cc(Br)ccc2Br)c1
- IC50 (Genome polyprotein): 28.3 µM (active)

SMILES: COc1ccc(-c2[nH]c(-c3ccc4c(c3)OCO4)nc2-c2ccccc2)cc1
- EC50 [1]: 15.9 µM (active)
- EC50 [2]: 20.7 µM (active)

SMILES: CN(C)c1ccc(NC(=O)CCn2c(=S)oc3ccccc32)cc1
- AC50 [15]: 14.6 µM (active)

SMILES: O=C(NC1CCCCC1)N(C1=NCCCCC1)c1ccc(Br)cc1
- EC50 [11]: > 112 µM (not active)
- EC50 [12]: > 112 µM (not active)

SMILES: COc1cc(/C=C/C(=O)O)cc(S(=O)(=O)NCc2ccc3c(c2)OCO3)c1OC
- IC50 (Aminopeptidase N): 81.9 µM (active)

SMILES: CSC1=C(C#N)C(=O)NC(c2ccccc2O)S1 (stereo not drawn)
- IC50 (Genome polyprotein): 45.2 µM (active)

SMILES: COc1ccc(-n2c(SC(C)C(=O)Nc3ncc(Cl)cc3Cl)nc3ccccc32)cc1 (stereo not drawn)
- EC50 [16]: 12.6 µM (active)
- EC50 (BJ [3]): 29.8 µM (active)
- EC50 [17]: 38.4 µM (active)
- EC50 (BJ [4]): 22.3 µM (active)
- EC50 (BJ [5]): > 150 µM (not active)
- EC50 [6]: 89.7 µM (active)

SMILES: Cc1cccc(C(=O)O/N=C(\N)c2ccccn2)c1
- EC50 [11]: 7.75 µM (active)
- EC50 [12]: 20.4 µM (active)

SMILES: COCCCNC(=O)c1cc2c(=O)n(C)c3ccccc3c2n1C
- EC50 [1]: 14.4 µM (active)
- EC50 [2]: 15.4 µM (active)

SMILES: CCOc1cc(/C=C2\C(=O)ON=C2c2ccccc2)ccc1OC
- IC50 (Genome polyprotein): 27.1 µM (active)

SMILES: C[C@H](NC1=NS(=O)(=O)c2ccccc21)C(=O)OCc1cc([N+](=O)[O-])cc2c1OCOC2
- EC50 [11]: > 112 µM (not active)
- EC50 [12]: > 112 µM (not active)

SMILES: OC(CNc1ccccc1)COc1ccc(OCC(O)CNc2ccccc2)cc1 (stereo not drawn)
- EC50 [18]: 3.54 µM (active)
- EC50 [1]: 15.6 µM (active)
- EC50 [19]: > 60 µM (not active)
- EC50 [2]: 15 µM (active)

SMILES: CCc1nnc2n1N=C(c1ccc([N+](=O)[O-])cc1)CS2
- AC50 [15]: 6.01 µM (active)

SMILES: CCOC(=O)C1=C(O)/C(=C/c2cc(OC)c(OC)c(OC)c2)N=C1C
- EC50 [11]: > 112 µM (not active)
- EC50 [12]: > 112 µM (not active)
- AC50 (Cytochrome P450 1A2): 14.1 µM (inconclusive)
- AC50 (Cytochrome P450 3A4): 17.8 µM (inconclusive)

SMILES: COc1ccc(CCN2C(=O)c3ccccc3NC2c2cc(Cl)c(O)c(OC)c2)cc1 (stereo not drawn)
- EC50 (BJ [3]): 11.3 µM (inconclusive)
- EC50 (BJ [4]): > 150 µM (inconclusive)
- EC50 (BJ [5]): 25.7 µM (inconclusive)
- EC50 [6]: 12.9 µM (active)

SMILES: O=C(NCC1CCCO1)c1cccc(NC(=O)c2ccc(Br)cc2)c1 (stereo not drawn)
- EC50 [11]: > 112 µM (not active)
- EC50 [12]: > 112 µM (not active)

SMILES: CCC(C)NC(=O)c1cc(-c2ccccc2O)on1 (stereo not drawn)
- EC50 [11]: > 112 µM (not active)
- EC50 [12]: > 112 µM (not active)

SMILES: CCC(=O)N1CCN=C1SCc1cccc(C(F)(F)F)c1
- AC50 [15]: 4.38 µM (active)

SMILES: Cc1cc(C(=O)N/N=C/c2ccc3c(c2)OCO3)c2ccccc2n1
- EC50 (BJ [3]): 12.7 µM (active)
- EC50 (BJ [4]): 33.6 µM (active)
- EC50 (BJ [5]): 20.9 µM (active)
- EC50 [6]: 22.7 µM (active)

SMILES: COc1cc(/C=N/N2C(C)CCCC2C)cc(OC)c1O (stereo not drawn)
- AC50 [15]: 1.1 µM (active)

SMILES: COc1cc(/C=N/NC(=O)c2cccc(S(=O)(=O)N3CCCC3)c2)cc(OC)c1O
- AC50 [15]: 0.039 µM (active)

SMILES: Cc1ccc(CN2CCN(/N=C/c3ccc(O)c(O)c3)CC2)cc1
- AC50 [15]: 3.11 µM (active)

SMILES: COc1ccccc1S(=O)(=O)N1[C@@H]2CNC[C@H]1[C@H]2c1ccc(-c2ccccc2C)cc1
- AC50 [20]: 27.7 µM (active)
